This test addresses MarA (Escherichia coli, UniProt P0ACH5). The test is described as follows: MarA-activated selective marker (ccdB) cell survival assay, Example 2. Details: key: * indicates good inhibition of MarA; ** indicates very good inhibition of MarA. Conditions: inhibition of MarA: cell survival under conditions of MarA expression (ccdB under MarA-activated promoter). The test is classed as cell-based. An excerpt: In the absence of Mar A, the expression of the selective marker would be silent. For example, in the case of regulation of the cytotoxic gene ccdB, the gene would be silent and the cells would survive. Synthesis of MarA from an inducible plasmid in a suitable host would result in the activation of the MarA responsive activatable promoter and expression of the selective marker. In the case of ccdB, the gene would be expressed and result in cell death. Compounds that inhibit MarA would be identified as those that permit cell survival under conditions of MarA expression.
In the absence of MarA, the expression of the selective marker is silent and cells survive. Synthesis of MarA from an inducible plasmid in a bacterial or yeast cell leads to the activation of the inaA promoter, expression of ccdB, and subsequently results in cell death. Compounds that inhibit MarA are those that permit cell survival under conditions of MarA expression. In Table 4, * indicates good inhibition of MarA and ** indicates very good inhibition of MarA.

The text below walks through data of patent publication US7405235B2, “Transcription factor modulating compounds and methods of use thereof” (Paratek Pharmaceuticals, Inc., priority 2001, dated 2008).

Molecules are shown by their SMILES.

MarA, sequence (P0ACH5 whole entry, looked up): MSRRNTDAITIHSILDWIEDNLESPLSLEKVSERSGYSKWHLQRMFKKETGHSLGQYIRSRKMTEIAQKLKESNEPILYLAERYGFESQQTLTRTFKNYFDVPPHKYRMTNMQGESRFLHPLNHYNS

Regarding `Cc1ccc(-c2nc3c(=O)n(-c4ccccc4)c4c(c(=O)n(C)c(=O)n4C)c3o2)cc1` [AL, 6,8-Dimethyl-5-phenyl-2-p-tolyl-5H,6H-1-oxa-3,5,6,8-tetraaza-cyclopenta[a]naphthalene-4,7,9-trione], the MarA inhibition class result was “*”. For the compound `O=C1C(=C2NC(c3ccccn3)C3C(=O)N(c4ccccc4)C(=O)C23)C(=O)c2ccccc21` (centres unmarked) [AF, 4-(1,3-Dioxo-indan-2-ylidene)-2-phenyl-6-pyridin-2-yl-tetrahydro-pyrrolo[3,4-c]pyrrole-1,3-dione], the MarA inhibition class entry is given as “**”. As to `CCCSc1nnc2c(n1)OC(c1ccc(OCc3ccccc3)cc1)Nc1ccccc1-2` (centres unmarked) [F, 6-(4-Benzyloxy-phenyl)-3-propylsulfanyl-6,7-dihydro-5-oxa-1,2,4,7-tetraaza-dibenzo[a,c]cycloheptene], the MarA inhibition class entry is recorded as “**”. For `O=[N+]([O-])c1ccc2nc(-c3ccccc3)n(OCc3ccccc3)c2c1` [AI, 1-Benzyloxy-6-nitro-2-phenyl-1H-benzoimidazole], the MarA inhibition class result is reported as “**”.

Regarding `CSc1nnc2c(n1)OC(c1ccc(I)o1)Nc1ccccc1-2` (centres unmarked) [A, 6-(5-Iodo-furan-2-yl)-3-methylsulfanyl-6,7-dihydro-5-oxa-1,2,4,7-tetraaza-dibenzo[a,c]cycloheptene], the MarA inhibition class entry is listed as “**”. Turning to `CCOC(=O)C1=C(C)N=c2sc(=Cc3ccc(-c4ccc(C)c([N+](=O)[O-])c4)o3)c(=O)n2C1c1ccc(N(C)C)cc1` (centres unmarked) [X, 5-(4-Dimethylamino-phenyl)-7-methyl-2-[5-(4-methyl-3-nitro-phenyl)-furan-2-ylmethylene]-3-oxo-2,3-dihydro-5H-thiazolo[3,2-a]pyrimidine-6-carboxylicacid ethyl ester], the MarA inhibition class result is recorded as “**”. In the case of `O=C1C=Cc2ccccc2/C1=N/Oc1ccc2noc3c2c1C(=O)c1ccccc1-3` [Z, [1,2]Naphthoquinone 1-[O-(6-oxo-6H-anthra[1,9-cd]isoxazol-5-yl)-oxime]], the MarA inhibition class entry was “*”.

For `CSc1nnc2c(n1)OC(c1ccc([N+](=O)[O-])o1)Nc1ccccc1-2` (centres unmarked) [C, 3-Methylsulfanyl-6-(5-nitro-furan-2-yl)-6,7-dihydro-5-oxa-1,2,4,7-tetraaza-dibenzo[a,c]cycloheptene], the MarA inhibition class result is “*”. As to `CCOC(=O)C1=C(C)N=c2s/c(=C/c3ccc(-c4cccc(C(F)(F)F)c4)o3)c(=O)n2C1c1ccccc1` (centres unmarked) [U, 7-Methyl-3-oxo-5-phenyl-2-[5-(3-trifluoromethyl-phenyl)-furan-2-ylmethylene]-2,3-dihydro-5H-thiazolo[3,2-a]pyrimidine-6-carboxylicacid ethyl ester], the MarA inhibition class result is on record as “**”. The value for `CSc1nnc2c(n1)OC(c1ccc(-c3ccc([N+](=O)[O-])cc3)o1)Nc1ccccc1-2` (centres unmarked) [D, 3-Methylsulfanyl-6-[5-(4-nitro-phenyl)-furan-2-yl]-6,7-dihydro-5-oxa-1,2,4,7-tetraaza-dibenzo[a,c]cycloheptene] was “*”. For `O=C1C(=C2NC(c3ccccn3)C3C(=O)N(c4ccccc4)C(=O)C23)C(=O)c2ccccc21` (centres unmarked) [BB, 4-(1,3-dioxo-1,3-dihydro-2H-inden-2-yliden)-2-phenyl-6-(2-pyridinyl)tetrahydro pyrrolo[3,4-c]pyrrole-1,3(2H,3aH)-dione], the MarA inhibition class result is given as “*”. For the compound `COC(=O)c1ccccc1NC(=O)CSc1nnc(-c2ccco2)n1-c1ccccc1` [AC, 2-[2-(5-Furan-2-yl-4-phenyl-4H-[1,2,4]triazol-3-ylsulfanyl)-acetylamino]-benzoic acid methyl ester], the MarA inhibition class result is “*”. For `CCCCSc1nnc2c(n1)OC(c1ccc(OCC)cc1)Nc1ccccc1-2` (centres unmarked) [J, 3-Butylsulfanyl-6-(4-ethoxy-phenyl)-6,7-dihydro-5-oxa-1,2,4,7-tetraaza-dibenzo[a,c]cycloheptene], the MarA inhibition class entry is on record as “*”.

Regarding `O=C(O)COn1c(-c2ccccc2)nc2ccc([N+](=O)[O-])cc21` [AH, (6-Nitro-2-phenyl-benzoimidazol-1-yloxy)-acetic acid], the MarA inhibition class entry is listed as “**”. The value for `O=[N+]([O-])c1ccc2nc(-c3ccccc3)n(OCc3cccc(C(F)(F)F)c3)c2c1` [AG, 6-Nitro-2-phenyl-1-(3-trifluoromethyl-benzyloxy)-1H-benzoimidazole] was “**”; that for `Cn1c(=O)c2c3oc(-c4ccc([N+](=O)[O-])cc4)nc3c(=O)n(-c3ccccc3)c2n(C)c1=O` [AK, 6,8-Dimethyl-2-(4-nitro-phenyl)-5-phenyl-5H,6H-1-oxa-3,5,6,8-tetraaza-cyclopenta[a]naphthalene-4,7,9-trione] was “**”; that for `CCOC(=O)C1=C(C)N=c2sc(=Cc3ccc(-c4cccc(C(=O)O)c4)o3)c(=O)n2C1c1ccc(N(C)C)cc1` (centres unmarked) [W, 2-[5-(3-Carboxy-phenyl)-furan-2-ylmethylene]-5-(4-dimethylamino-phenyl)-7-methyl-3-oxo-2,3-dihydro-5H-thiazolo[3,2-a]pyrimidine-6-carboxylicacid ethyl ester] was “**”. With `O=C(O)COn1c(-c2ccccc2)nc2ccc([N+](=O)[O-])cc21` [BD, 2-[(6-nitro-2-phenyl-1H-1,3-benzimidazol-1-yl)oxy]acetic acid] the entry was “*”; with `CN(C)c1ccc(-c2cc(=O)c3ccccc3o2)cc1` [AW, 2-[4-(dimethylamino)phenyl]-4H-chromen-4-one], “**”; with `CCOC(=O)C1=C(C)N=c2sc(=Cc3ccc(-c4cccc(C(=O)O)c4)o3)c(=O)n2C1c1c(OC)ccc2ccccc12` (centres unmarked) [N, 2-[5-(3-Carboxy-phenyl)-furan-2-ylmethylene]-5-(2-methoxy-naphthalen-1-yl)-7-methyl-3-oxo-2,3-dihydro-5H-thiazolo[3,2-a]pyrimidine-6-carboxylicacid ethyl ester], “**”. With `COc1ccc2c(=O)cc(-c3ccccc3)oc2c1` [BA, 7-methoxy-2-phenyl-4H-chromen-4-one], the MarA inhibition class entry is recorded as “*”. Regarding `c1ccc(COn2c(-c3ccccc3)nc3ncccc32)cc1` [AX, 1-(benzyloxy)-2-phenyl-1H-imidazo[4,5-b]pyridine], the MarA inhibition class result was “**”. `CCCSc1nnc2c(n1)OC(c1ccc(-c3cccc([N+](=O)[O-])c3)o1)Nc1ccccc1-2` (centres unmarked) [L, 6-[5-(3-Nitro-phenyl)-furan-2-yl]-3-propylsulfanyl-6,7-dihydro-5-oxa-1,2,4,7-tetraaza-dibenzo[a,c]cycloheptane]: the MarA inhibition class entry is given as “**”. With `O=c1cc(-c2ccc(O)cc2)oc2ccccc12` [BG, 2-(4-hydroxyphenyl)-4H-chromen-4-one], the MarA inhibition class result is given as “*”. With `O=c1/c(=C\c2c[nH]nc2-c2ccccc2)sc2nc3ccccc3n12` [M, 2-(3-Phenyl-1H-pyrazol-4-ylmethylene)-benzo[4,5]imidazo[2,1-b]thiazol-3-one], the MarA inhibition class result is “**”. Turning to `Cc1cc2nc3s/c(=C/c4c[nH]nc4-c4ccccc4)c(=O)n3c2cc1C` [AD, 6,7-Dimethyl-2-(3-phenyl-1H-pyrazol-4-ylmethylene)-benzo[4,5]imidazo[2,1-b]thiazol-3-one], the MarA inhibition class entry was “*”. Take `CSc1cccc(NC(=O)CSc2nnc(-c3ccc4nonc4c3)n2C)c1` [AE, 2-(5-Benzo[1,2,5]oxadiazol-5-yl-4-methyl-4H-[1,2,4]triazol-3-ylsulfanyl)-N-(3-methylsulfanyl-phenyl)-acetamide]: the MarA inhibition class entry is reported as “*”. With `CCSc1nnc2c(n1)OC(c1ccc(O)c(O)c1)Nc1ccccc1-2` (centres unmarked) [E, 4-(3-Ethylsulfanyl-6,7-dihydro-5-oxa-1,2,4,7-tetraza-dibenzo[a,c]cyclohepten-6-yl)-benzene-1,2-diol], the MarA inhibition class entry is “*”. With `C=CCOc1ccc(C2Nc3ccccc3-c3nnc(SCCCC)nc3O2)cc1` (centres unmarked) [I, 6-(4-Allyloxy-phenyl)-3-butylsulfanyl-6,7-dihydro-5-oxa-1,2,4,7-tetraaza-dibenzo[a,c]cycloheptene] the entry was “**”. Regarding `CCOC(=O)C1=C(C)N=c2sc(=Cc3ccc(-c4ccc([N+](=O)[O-])cc4C)o3)c(=O)n2C1c1ccc2c(c1)OCO2` (centres unmarked) [P, 5-Benzo[1,3]dioxol-5-yl-7-methyl-2-[5-(2-methyl-4-nitro-phenyl)-furan-2-ylmethylene]-3-oxo-2,3-dihydro-5H-thiazolo[3,2-a]pyrimidine-6-carboxylicacid ethyl ester], the MarA inhibition class result is listed as “*”. On to `CCCSc1nnc2c(n1)OC(c1ccc(OC)cc1)Nc1ccccc1-2` (centres unmarked) [K, 6-(4-Methoxy-phenyl)-3-propylsulfanyl-6,7-dihydro-5-oxa-1,2,4,7-tetraaza-dibenzo[a,c]cycloheptene], for which the MarA inhibition class result is “*”.

Consider `O=c1cc(-c2ccc(F)cc2)oc2ccccc12` [BE, 2-(4-fluorophenyl)-4H-chromen-4-one], for which the MarA inhibition class entry is listed as “*”. The value for `CCOC(=O)C(C(N)=O)C1(O)OC(c2ccc(C)cc2)=CC1=O` (centres unmarked) [BC, 2-(2-Hydroxy-3-oxo-5-p-tolyl-2,3-dihydro-furan-2-yl)-malonamic acid ethylester] was “*”.

`Cc1ccc(COn2c(-c3ccccc3)nc3ccc([N+](=O)[O-])cc32)cc1` [AJ, 1-(4-Methyl-benzyloxy)-6-nitro-2-phenyl-1H-benzoimidazole]: the MarA inhibition class entry was “*”.

As to `O=c1cc(-c2ccccc2)oc2ccc(F)cc12` [AZ, 6-fluoro-2-phenyl-4H-chromen-4-one], the MarA inhibition class entry is reported as “**”.
